Experimental data taken from PubChem BioAssay (NCI).
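Assay format: 96-well plates, 48-hour exposure. GI50 = concentration required for 50% inhibition of growth. TGI denotes the concentration required for complete inhibition of growth.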 Where a SMILES comes first, the peptide text is derived from it. The star is where a group is joined. Cbz = O=C(OCc1ccccc1)*

Legend:
Experiment in all cases: growth of human tumour cells (NCI), 48 h
NCI-H23 lung = system: NCI-H23 lung
TK-10 renal = system: TK-10 renal
EKVX NSCLC = system: EKVX NSCLC
MDA-MB-231 breast = system: MDA-MB-231 breast
T-47D breast = system: T-47D breast
SK-OV-3 ovarian = system: SK-OV-3 ovarian
HOP-62 NSCLC = system: HOP-62 NSCLC
MCF7 breast = system: MCF7 breast
OVCAR-3 ovarian = system: OVCAR-3 ovarian
M14 melanoma = system: M14 melanoma

Compound	TGI (NCI-H23 lung) [µM]	TGI (TK-10 renal) [µM]	TGI (EKVX NSCLC) [µM]	TGI (MDA-MB-231 breast) [µM]	TGI (T-47D breast) [µM]	TGI (SK-OV-3 ovarian) [µM]	TGI (HOP-62 NSCLC) [µM]	GI50 (MCF7 breast) [nM]	TGI (MCF7 breast) [µM]	GI50 (NCI-H23 lung) [µM]	GI50 (TK-10 renal) [µM]	GI50 (EKVX NSCLC) [µM]	TGI (OVCAR-3 ovarian) [µM]	TGI (M14 melanoma) [µM]	GI50 (MDA-MB-231 breast) [µM]	GI50 (T-47D breast) [µM]	GI50 (M14 melanoma) [µM]	GI50 (SK-OV-3 ovarian) [µM]	GI50 (OVCAR-3 ovarian) [µM]	GI50 (HOP-62 NSCLC) [µM]
N=C(N)SCc1ccc(N=C=S)cc1	27.5	28.1	35.5	20.1	34.9	31.1	32.5													
CCc1c(C)c2ccc(OCC(=O)N=Nc3c(O)[nH]c4ccccc34)c(C)c2oc1=O	> 33.3	> 33.3	> 33.3					992	> 33.3	1.13	> 33.3	> 33.3								
CCOC(=O)c1cn2c(ccc3sc4ccccc4c(=O)c32)n1	> 100	> 100	> 100	> 100			> 100		> 100				> 100							
CC(C)(O)CCc1ccc(O)c2c(=O)c3c(O)c4c(cc3oc12)O[C@H]1OC=C[C@@]41O	0.64	> 100	> 61.2	> 100		13.2	2.43		< 0.01				< 0.01							
CCCCc1c2c(nc3c1CC/C(=C\c1ccc([N+](=O)[O-])cc1)C3=O)CCCC2		3.17	23.7			3.91	3.29						3.14	3.34						
O=C1CCCC2=C1CC1=C(CCCC1=O)N2c1cccc([N+](=O)[O-])c1	> 100	> 100	> 100			> 100			> 100				> 100	> 100						
Cc1ccc(NC(=O)/C(=N\NC(N)=O)c2c(O)c3ccccc3[nH]c2=O)cc1	> 100			> 100	> 100	> 100			> 100				> 100	> 100						
O=C1CSC(C(N=Nc2ccc(Cl)cc2)c2nc3ccccc3[nH]2)=N1 (stereo not given)	> 100	> 100	> 100			> 100	> 100						> 100	> 100						
COc1ccc(/C=C2\CN(C)CC3C2=NN(c2ccccc2)C3c2ccc(OC)cc2)cc1 (stereo not given)	> 100	91.8	> 100		> 100	55.1	> 100		> 100				> 100	> 100						
Cc1nnc([C@@]2(C)CC[C@H]3[C@@H](CCC4=CC(=O)CC[C@@]43C)[C@@H]2CC#N)o1	> 100	> 100	> 100	> 100		> 100	> 100		> 100				> 100	> 100						
CCOC(=O)CNC(=O)C(C)NC(=O)C(NC(=O)OCc1ccccc1)C(C)C (stereo not drawn) (Cbz-Val-Ala-Gly-OEt; configuration not given here)	> 100	> 100	> 100			> 100	> 100		> 100				> 100	> 100						
CN(C)/C=C/c1c2c(nc3ccccc13)C(=O)c1ccccc1C2=O	0.882	6	5.47	4.26	5.19	11.7	1.32						0.622	1.92						
Cc1ccc([N+](=O)[O-])cc1S(=O)(=O)Nc1ccc(C2=NN(S(=O)(=O)c3cc([N+](=O)[O-])ccc3C)C(c3ccco3)C2)cc1 (stereo not given)	> 100		94		92.9	> 100	> 100		> 100				> 100	> 100						
CC(C)[C@](O)(C(=O)OCC1=CCN2CC[C@@H](O)[C@@H]12)[C@H](C)O	> 375		> 375			> 375	> 375		> 375				> 375							
COc1cc2cc(C(=O)N3CC(CCl)c4c3cc(O)c3ccccc43)[nH]c2c(OC)c1OC (stereo not given)		> 50	0.597		> 50	0.996							8.42	< 0.005						
CC(C)(SCc1ccccc1)C(N)C(=O)O (stereo not given)	> 100	> 100	> 100	> 100	> 100		> 100						> 100	> 100						
NC(=O)SCC(=O)Nc1ccc2ncccc2c1	> 100	> 100	> 100	> 100		> 100	> 100		> 100				> 100	> 100						
Cc1c(-c2ccc(O)c(O)c2)oc(=O)c2c(O)cccc12	22	67	> 100		15.4	40.9	34.5		34.4				66.1	20.7						

Compound	TGI (NCI-H23 lung) [µM]	TGI (TK-10 renal) [µM]	TGI (EKVX NSCLC) [µM]	TGI (MDA-MB-231 breast) [µM]	TGI (T-47D breast) [µM]	TGI (SK-OV-3 ovarian) [µM]	TGI (HOP-62 NSCLC) [µM]	GI50 (MCF7 breast) [nM]	TGI (MCF7 breast) [µM]	GI50 (NCI-H23 lung) [µM]	GI50 (TK-10 renal) [µM]	GI50 (EKVX NSCLC) [µM]	TGI (OVCAR-3 ovarian) [µM]	TGI (M14 melanoma) [µM]	GI50 (MDA-MB-231 breast) [µM]	GI50 (T-47D breast) [µM]	GI50 (M14 melanoma) [µM]	GI50 (SK-OV-3 ovarian) [µM]	GI50 (OVCAR-3 ovarian) [µM]	GI50 (HOP-62 NSCLC) [µM]
CC(=O)OC1OC(c2ccoc2)C[C@@]12C1CCC3O[C@]3(C)[C@]1(C)C[C@H](OC(C)=O)[C@H]2C (stereo not given in full)	> 75	> 75	> 75	> 75	> 75	> 75			> 75				> 75	> 75						
CCCCS(=O)CC(CO)NC(=O)/C=C/c1c(C)[nH]c(=O)[nH]c1=O (stereo not given)	44.6		43			65.3	45		51				15							
Cc1cc(=O)c2ccccc2n1CCCCCCCCCCn1c(C)cc(=O)c2ccccc21	30.9	30.2	33.9	> 100	> 100	35.3	> 100						> 100	> 100						
Nc1[nH]c(=S)c2c(N)n[nH]c2c1C(=O)Nc1ccc(Cl)cc1		> 100	> 100	> 100	> 100	> 100			> 100				> 100	> 100						
CCN(CC)CC(=O)Nc1ccc2c(c1)C(=O)c1ccc(NC(=O)CN(CC)CC)cc1C2=O	> 100	> 100	> 100			88	74.1							36.8						
COc1cc2cc3c4c(cc(OC)c(OC)c4c2cc1OC)CCN3C(=O)CCC(=O)O	> 100	> 100	> 100			> 100	> 100						> 100	> 100						
O=C1CCCN1CCCN=c1cc2n(-c3ccc(Cl)cc3)c3ccccc3nc-2cc1Nc1ccc(Cl)cc1	25.1		28.1			80.7	29.5		25.8				6.18							
O=C1CCCC[C@H]1C(O)CC1CC(=O)N(c2ccccc2)C(=O)C1 (stereo not given in full)	> 100	> 100		> 100			> 100		> 100				> 100	> 100						
COc1ccc(-c2nc3c(nc2-c2ccc(OC)cc2)N(C)S(=O)(=O)N=C3N)cc1	> 100	> 100				88.8	> 100						31	> 100						
O=C(c1ccccc1)c1nn(-c2ccccc2)c2nc3nc(-c4ccccc4)cc(=O)n3nc12	> 100	> 100	58.2	> 100	99.5	> 100	> 100			33.1	40.3	22.2	49.5	81.4	26.2	28.9	27.3	62.2	19.9	38
CC(C)N(/C(F)=N\C(=O)Nc1ccccc1C(F)(F)F)C(C)C	> 100	> 100	> 100	> 100		> 100	> 100		> 100				> 100	> 100						
CC(=O)OC1[C@H](n2ccnc2)C[C@H]2[C@@H]3CC=C4CC(N5CCCC5)CC[C@]4(C)[C@H]3CC[C@]12C (stereo not given in full)	> 100	> 100	> 100	> 100					> 100				> 100	61.6						
COC(=O)C1C(O)C(C)C(O)OC1C(C)C(O)C(C)/C=C\C=C(/C)C(=O)Nc1c(C)c(OC(C)=O)c2c(c1O)C(=O)C(C)=C1OCOC(/C(C)=C/C(C)=O)=C12 (stereo not given)	27.8		20.5			40.2	23.5		26.8				20.5							
COc1cc(C(=O)OCCn2[nH]c(-c3ccc(Cl)cc3)nc2=S)cc(OC)c1OC	> 100	> 100	> 100	> 100		> 100	> 100		> 100				> 100	> 100						
CC(=O)OC(=C(C#N)C#N)c1nccnc1C(C)=O	> 20		> 20	> 20	> 20	> 20			> 20				> 20	11.8						
O=C1C=C2CC[C@H]3[C@@H]4CC[C@H](Oc5c6ccccc6nc6ccccc56)[C@H]4CC[C@@H]3[C@H]2CC1	> 100	> 100	> 100	> 100	> 100	> 100	> 100						> 100	> 100						
CN=C(NC)N(C)c1nc(=[N+](C)C)ss1	> 100	> 100	> 100			> 100	> 100						> 100	> 100						
